The values below come from patent publication US10730874B2 (Shire Human Genetic Therapies, Inc., priority 2018, dated 2020).

pEC50: −log10 of the molar value.

The target of the first test is human activated kallikrein enzyme (plasma kallikrein) (Homo sapiens (Human), UniProt P03952). In words: Inhibition of human activated plasma kallikrein, fluorogenic peptide substrate assay, 500 pM enzyme format. In kind it is biochemical.
human activated kallikrein enzyme (plasma kallikrein), sequence (P03952 391-638): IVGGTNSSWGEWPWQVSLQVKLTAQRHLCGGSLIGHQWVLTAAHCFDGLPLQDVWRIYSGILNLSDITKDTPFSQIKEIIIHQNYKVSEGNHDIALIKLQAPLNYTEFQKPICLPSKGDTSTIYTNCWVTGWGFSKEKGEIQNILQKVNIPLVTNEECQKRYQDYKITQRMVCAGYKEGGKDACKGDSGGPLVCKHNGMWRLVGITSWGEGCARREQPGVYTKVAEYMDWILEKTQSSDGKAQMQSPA
human activated kallikrein enzyme (plasma kallikrein), sequence (P03952 20-390 partner): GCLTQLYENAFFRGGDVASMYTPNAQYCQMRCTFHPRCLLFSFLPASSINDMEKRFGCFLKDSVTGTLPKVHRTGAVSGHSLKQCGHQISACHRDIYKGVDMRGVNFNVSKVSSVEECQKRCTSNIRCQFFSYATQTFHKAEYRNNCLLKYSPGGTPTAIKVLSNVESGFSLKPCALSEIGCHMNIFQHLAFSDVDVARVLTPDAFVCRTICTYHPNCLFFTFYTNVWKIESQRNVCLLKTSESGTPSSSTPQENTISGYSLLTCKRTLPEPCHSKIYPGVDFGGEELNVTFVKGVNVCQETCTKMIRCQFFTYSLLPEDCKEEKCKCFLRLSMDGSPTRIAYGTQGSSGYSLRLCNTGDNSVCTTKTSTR
Details: not given
The protocol:
Example compounds were evaluated for inhibition of the human activated kallikrein enzyme in two formats of an assay employing a fluorogenic peptide substrate. In one assay format, the concentrations of reagents were as follows: 20 mM Tris pH 7.5, 1 mM EDTA, 150 mM sodium chloride, 0.1% PEG-400, 0.1% Triton X-100, 500 pM activated kallikrein enzyme, 300 uM Pro-Phe-Arg-7-amido-4-methylcoumarin substrate. Prior to reaction initiation with substrate, enzyme and inhibitors were preincubated for 30 min at RT. After initiation with substrate, reactions were incubated for 10 min at RT and fluorescence emission at 460 nm from 380 nm excitation measured with a microplate reader. In another assay format, the concentrations of reagents were as follows: 20 mM Tris pH 7.5, 1 mM EDTA, 150 mM sodium chloride, 0.1% PEG-400, 0.1% Triton X-100, 5 pM activated kallikrein enzyme, 300 uM Pro-Phe-Arg-7-amido-4-methylcoumarin substrate. Prior to reaction initiation with substrate, enzyme and inhibitors were preincubated for 30 min at RT. After initiation with substrate, reactions were incubated for 18 h at RT and fluorescence emission at 460 nm from 380 nm excitation measured with a microplate reader.
The pEC50 is −log10 of the EC50, conventionally taken in molar units. As to `O=C(NCc1ncn2ccc(Cl)cc12)c1cn(Cc2cn3cc(C4CC4)ccc3n2)c2cccnc12` [Example I-29, N-((7-chloroimidazo[1,5-a]pyridin-1-yl)methyl)-1-((6-cyclopropylimidazo[1,2-a]pyridin-2-yl)methyl)-1H-pyrrolo[3,2-b]pyridine-3-carboxamide], the negative logarithm of the EC50 (pEC50) is 7.00 to 8.00.

Regarding `O=C(NCc1ncn2ccc(Br)cc12)c1cn(Cc2cn3cc(C4CC4)ccc3n2)c2cccnc12` [Example I-30, N-((7-bromoimidazo[1,5-a]pyridin-1-yl)methyl)-1-((6-cyclopropylimidazo[1,2-a]pyridin-2-yl)methyl)-1H-pyrrolo[3,2-b]pyridine-3-carboxamide], the pEC50 was 8.00 to 9.00.

Still in this test, the particulars now being: 500 pM activated kallikrein enzyme, 300 uM Pro-Phe-Arg-7-amido-4-methylcoumarin substrate, 30 min preincubation, 10 min at RT; read-out: Primary Dose Response Assay: Average EC50.
Take `O=C(NCc1ncn2ccc(Cl)cc12)c1cnn(Cc2ccc3ncc(Cl)cc3c2)c1` [Example I-1, N-((7-chloroimidazo[1,5-a]pyridin-1-yl)methyl)-1-((3-chloroquinolin-6-yl)methyl)-1H-pyrazole-4-carboxamide]: the negative logarithm of the EC50 (pEC50) was 7.00 to 8.00.

As for `O=C(NCc1ncn2ccc(Cl)cc12)c1cnn(Cc2cn3cc(C4CC4)ccc3n2)c1` [Example I-2, N-((7-chloroimidazo[1,5-a]pyridin-1-yl)methyl)-1-((6-cyclopropylimidazo[1,2-a]pyridin-2-yl)methyl)-1H-pyrazole-4-carboxamide], the pEC50 was over 9.00.

On to `O=C(NCc1ncn2ccc(Cl)cc12)c1ccnc(Cc2ccc3ncc(Cl)cc3c2)c1` [Example I-3, N-((7-chloroimidazo[1,5-a]pyridin-1-yl)methyl)-2-((3-chloroquinolin-6-yl)methyl)isonicotinamide], for which the negative logarithm of the EC50 (pEC50) is 7.00 to 8.00.

Turning to `Cc1ccn2cnc(CNC(=O)c3cnn(Cc4cn5cc(C6CC6)ccc5n4)c3)c2c1` [Example I-4, 1-((6-cyclopropylimidazo[1,2-a]pyridin-2-yl)methyl)-N-((7-methylimidazo[1,5-a]pyridin-1-yl)methyl)-1H-pyrazole-4-carboxamide], the pEC50 was 8.00 to 9.00.

Take `O=C(NCc1ncn2ccc(Br)cc12)c1cnn(Cc2cn3cc(C4CC4)ccc3n2)c1` [Example I-5, N-((7-bromoimidazo[1,5-a]pyridin-1-yl)methyl)-1-((6-cyclopropylimidazo[1,2-a]pyridin-2-yl)methyl)-1H-pyrazole-4-carboxamide]: the negative logarithm of the EC50 (pEC50) was over 9.00.

As for `O=C(NCc1ncn2ccc(Cl)cc12)c1cnn(Cc2nc3ccc(C4CC4)cn3n2)c1` [Example I-6, N-((7-chloroimidazo[1,5-a]pyridin-1-yl)methyl)-1-((6-cyclopropyl-[1,2,4]triazolo[1,5-a]pyridin-2-yl)methyl)-1H-pyrazole-4-carboxamide], the pEC50 was 8.00 to 9.00.

As to `Cc1c(Cl)ccc2nc(Cn3cc(C(=O)NCc4ncn5ccc(Cl)cc45)cn3)cn12` [Example I-7, 1-((6-chloro-5-methylimidazo[1,2-a]pyridin-2-yl)methyl)-N-((7-chloroimidazo[1,5-a]pyridin-1-yl)methyl)-1H-pyrazole-4-carboxamide], the pEC50 is 8.00 to 9.00.

In the case of `CC(C)c1ccc2nc(Cn3cc(C(=O)NCc4ncn5ccc(Cl)cc45)cn3)cn2c1` [Example I-8, N-((7-chloroimidazo[1,5-a]pyridin-1-yl)methyl)-1-((6-isopropylimidazo[1,2-a]pyridin-2-yl)methyl)-1H-pyrazole-4-carboxamide], the pEC50 was over 9.00.

For the compound `Cc1cccc2nc(Cn3cc(C(=O)NCc4ncn5ccc(Cl)cc45)cn3)cn12` [Example I-9, N-((7-chloroimidazo[1,5-a]pyridin-1-yl)methyl)-1-((5-methylimidazo[1,2-a]pyridin-2-yl)methyl)-1H-pyrazole-4-carboxamide], the pEC50 was 7.00 to 8.00.

Consider `CC1(c2ccc3nc(Cn4cc(C(=O)NCc5ncn6ccc(Cl)cc56)cn4)cn3c2)CC1` [Example I-10, N-((7-chloroimidazo[1,5-a]pyridin-1-yl)methyl)-1-((6-(1-methylcyclopropyl)imidazo[1,2-a]pyridin-2-yl)methyl)-1H-pyrazole-4-carboxamide], for which the pEC50 is over 9.00.

Consider `Cc1c(C2CC2)ccc2nc(Cn3cc(C(=O)NCc4ncn5ccc(Cl)cc45)cn3)cn12` [Example I-13, N-((7-chloroimidazo[1,5-a]pyridin-1-yl)methyl)-1-((6-cyclopropyl-5-methylimidazo[1,2-a]pyridin-2-yl)methyl)-1H-pyrazole-4-carboxamide], for which the negative logarithm of the EC50 (pEC50) was over 9.00.

On to `O=C(NCc1ncn2ccc(Cl)cc12)c1cnn(Cc2cn3nc(C4CC4)ccc3n2)c1` [Example I-15, N-((7-chloroimidazo[1,5-a]pyridin-1-yl)methyl)-1-((6-cyclopropylimidazo[1,2-b]pyridazin-2-yl)methyl)-1H-pyrazole-4-carboxamide], for which the negative logarithm of the EC50 (pEC50) was over 9.00.

Take `Cc1cc2nc(Cn3cc(C(=O)NCc4ncn5ccc(Cl)cc45)cn3)cn2cc1C1CC1` [Example I-16, N-((7-chloroimidazo[1,5-a]pyridin-1-yl)methyl)-1-((6-cyclopropyl-7-methylimidazo[1,2-a]pyridin-2-yl)methyl)-1H-pyrazole-4-carboxamide]: the pEC50 is 8.00 to 9.00.

Regarding `Cc1cc2nc(Cn3cc(C(=O)NCc4ncn5ccc(Br)cc45)cn3)cn2cc1C1CC1` [Example I-17, N-((7-bromoimidazo[1,5-a]pyridin-1-yl)methyl)-1-((6-cyclopropyl-7-methylimidazo[1,2-a]pyridin-2-yl)methyl)-1H-pyrazole-4-carboxamide], the negative logarithm of the EC50 (pEC50) is 8.00 to 9.00.

For `O=C(NCc1ncn2ccc(Cl)cc12)c1cnn(Cc2cn3cc(C(F)(F)F)ccc3n2)c1` [Example I-18, N-((7-chloroimidazo[1,5-a]pyridin-1-yl)methyl)-1-((6-(trifluoromethyl)imidazo[1,2-a]pyridin-2-yl)methyl)-1H-pyrazole-4-carboxamide], the negative-log EC50 (pEC50) was 8.00 to 9.00.

As to `O=C(NCc1ncn2ccc(Br)cc12)c1cnn(Cc2cn3cc(C(F)(F)F)ccc3n2)c1` [Example I-19, N-((7-bromoimidazo[1,5-a]pyridin-1-yl)methyl)-1-((6-(trifluoromethyl)imidazo[1,2-a]pyridin-2-yl)methyl)-1H-pyrazole-4-carboxamide], the negative-log EC50 (pEC50) was 8.00 to 9.00.

`O=C(NCc1ncn2ccc(Br)cc12)c1cnn(Cc2cn3cc(C4CC4)c(F)cc3n2)c1` [Example I-20, N-((7-bromoimidazo[1,5-a]pyridin-1-yl)methyl)-1-((6-cyclopropyl-7-fluoroimidazo[1,2-a]pyridin-2-yl)methyl)-1H-pyrazole-4-carboxamide]: the negative-log EC50 (pEC50) is 8.00 to 9.00.

Consider `O=C(NCc1ncn2ccc(Cl)cc12)c1cnn(Cc2cn3cc(C4CC4)c(F)cc3n2)c1` [Example I-21, N-((7-chloroimidazo[1,5-a]pyridin-1-yl)methyl)-1-((6-cyclopropyl-7-fluoroimidazo[1,2-a]pyridin-2-yl)methyl)-1H-pyrazole-4-carboxamide], for which the pEC50 was 8.00 to 9.00.

For the compound `O=C(NCc1ncn2ccc(Cl)cc12)c1cnn(Cc2cn3c(C4CC4)cccc3n2)c1` [Example I-22, N-((7-chloroimidazo[1,5-a]pyridin-1-yl)methyl)-1-((5-cyclopropylimidazo[1,2-a]pyridin-2-yl)methyl)-1H-pyrazole-4-carboxamide], the negative logarithm of the EC50 (pEC50) is 5.70 to 7.00.

In the case of `O=C(NCc1ncn2ccc(Cl)cc12)c1cnn(Cc2cn3c(Cl)c(C4CC4)ccc3n2)c1` [Example I-23, 1-((5-chloro-6-cyclopropylimidazo[1,2-a]pyridin-2-yl)methyl)-N-((7-chloroimidazo[1,5-a]pyridin-1-yl)methyl)-1H-pyrazole-4-carboxamide], the pEC50 is over 9.00.

On to `O=C(NCc1ncn2ccc(Cl)cc12)c1cnn(Cc2cn3cc(C4CC4)c(Cl)cc3n2)c1` [Example I-24, 1-((7-chloro-6-cyclopropylimidazo[1,2-a]pyridin-2-yl)methyl)-N-((7-chloroimidazo[1,5-a]pyridin-1-yl)methyl)-1H-pyrazole-4-carboxamide], for which the pEC50 is 8.00 to 9.00.

Take `O=C(NCc1ncn2ccc(Br)cc12)c1cnn(Cc2cn3cc(C4CC4)c(Cl)cc3n2)c1` [Example I-25, N-((7-bromoimidazo[1,5-a]pyridin-1-yl)methyl)-1-((7-chloro-6-cyclopropylimidazo[1,2-a]pyridin-2-yl)methyl)-1H-pyrazole-4-carboxamide]: the pEC50 was 8.00 to 9.00.

Consider `Cc1ccc2nc(Cn3cc(C(=O)NCc4ncn5ccc(Br)cc45)cn3)cn2c1C` [Example I-26, N-((7-bromoimidazo[1,5-a]pyridin-1-yl)methyl)-1-((5,6-dimethylimidazo[1,2-a]pyridin-2-yl)methyl)-1H-pyrazole-4-carboxamide], for which the negative logarithm of the EC50 (pEC50) was 8.00 to 9.00.

On to `O=C(NCc1ncn2ccc(Cl)cc12)c1cnn(Cc2cn3c(Br)cccc3n2)c1` [Example I-27, 1-((5-bromoimidazo[1,2-a]pyridin-2-yl)methyl)-N-((7-chloroimidazo[1,5-a]pyridin-1-yl)methyl)-1H-pyrazole-4-carboxamide], for which the pEC50 was 8.00 to 9.00.

For the compound `Cc1cc2nc(Cn3cc(C(=O)NCc4ncn5ccc(Cl)cc45)cn3)cn2cc1Br` [Example I-28, 1-((6-bromo-7-methylimidazo[1,2-a]pyridin-2-yl)methyl)-N-((7-chloroimidazo[1,5-a]pyridin-1-yl)methyl)-1H-pyrazole-4-carboxamide], the pEC50 was 8.00 to 9.00.
